Where two headings read alike, the source gives them in different places. No end group written: not given here.
How the values were obtained:
[1] = system: erythrocytes; assay: Hemolysis assay; type: cell-based
[2] = system: Staphylococcus xylosus (DSM 20287); type: cell-based
Experimental: (§1) The antimicrobial activity of the KL peptides was determined with a MIC assay. Peptide activity was tested against Gram-negative Escherichia coli (DSM 1116) and Enterobacter helveticus (DSM 18390) and against Gram-positive Bacillus subtilis (DSM 347) and Staphylococcus xylosus (DSM 20287) as previously reported. Our standard MIC assay was modified to avoid unnecessary exposure of peptides to the phosphate-containing growth medium, which was previously found to affect the results due to phosphate-induced aggregation of peptides. Details can be found in the Supplementary Materials.
(§2) The activity of KL and LK peptides against bacteria was examined using a MIC assay. […] We have previously shown that KL peptides, especially the longer ones, aggregate vigorously in the presence of phosphate ions. […] Therefore, here we used a modified MIC assay that was developed in our previous study, as described in the Methods section. In this approach, a two-fold dilution series was first prepared with peptides dissolved in water, and only thereafter were the bacteria in the medium added so that the peptides were simultaneously exposed to bacteria and phosphate-containing medium.
(§3) 1.3 MIC (minimum inhibitory concentration) assay
(§4) Antimicrobial activity was measured by a minimal inhibitory concentration (MIC) assay, carried out with Gram-positive Bacillus subtilis (DSM 347) and Staphylococcus xylosus (DSM 20287) and with Gram-negative Escherichia coli (DSM 1116) and Enterobacter helvet-icus (DSM 18390). Bacteria were grown in Müller-Hinton medium at 37°C overnight. Bac-terial solutions with OD550 = 0.2 was further diluted 1:100 for Gram-positive and 1:1000 for Gram-negative bacteria to get a concentration of […] colony forming units (CFU)/mL. Mi-crotiter plates (96 wells of 100 μL) were filled peptide solution to obtain serial 2-fold dilu-tion series of peptides. 50 µL of pure water was first added to each well. To the first well 50 µL peptide solution was added, after mixing 50 µL of this was transferred to the second well and so on. After all plates were prepared, 50 µL bacterial solution in double-concen-tration MHM was added to the wells (except for the final row of each plate) to give a final concentration of 5 × 10^5 CFU/mL in the wells. Thus, peptides got in contact with phosphate and bacteria simultaneously. […]
(§5) gregate stronlgy in contact with the phosphate containing growth medium. The two final rows of each plate remained without peptide, so that the penultimate data point served as the positive co ntrol (no peptide), and the final one as the negative control (not inoculated). The plates were incubated at 37°C for 20 h, and cell viability was probed by addition of 20 µL 0.2 mg/mL resazurin and incubation at 37°C for 2 h. The MIC value was determined visually as the lowest peptide concentration inhibiting bacterial growth. […]
(§6) Unencapsulated dye was removed by gel filtration using spin columns filled with Sephacryl 100-HR (Sigma-Aldrich, Taufkirchen, Germany), and equilibrated with an elu-tion buffer (150 mM NaCl, 10 mM HEPES, pH 7.5), which balances the internal vesicle

[3] = system: Escherichia coli (DSM 1116); type: cell-based
Experimental: as §1, §2, §3, §4, §5, §6

[4] = system: Bacillus subtilis (DSM 347); type: cell-based
Experimental: as §1, §2, §3, §4, §5, §6

[5] = system: Enterobacter helveticus (DSM 18390); type: cell-based
Experimental: as §1, §2, §3, §4, §5, §6

[6] = system: four bacterial strains; conditions: earlier study; ref [15]; cited from earlier work
From the text: (§7) Many natural and man-made AMPs are cationic and fold into simple amphiphilic α-helices. Much fewer examples exist of another fundamental type of secondary structure, namely amphiphilic β-strands. A classic model sequence, [KIGAKI]3-NH2, had been designed from alternating polar and hydrophobic side chains. Recently, we presented an even simpler group of so-called KL peptides, consisting of the alternating (lysine-leucine) dipeptide repeat: [KL]n-NH2. Recently, four KLx peptides of different lengths (x = number of residues, x = 2n) with 6–18 amino acids were compared in terms of ...

[7] = system: four bacterial strains; assay: MIC assay, overall statement for the four strains; type: cell-based, E. coli, E. helveticus, B. subtilis, S. xylosus; conditions: modified MIC assay
Experimental: as §1
The activity of KL and LK peptides against bacteria was examined using a MIC assay. […] We have previously shown that KL peptides, especially the longer ones, aggregate vigorously in the presence of phosphate ions. […] Therefore, here we used a modified MIC assay that was developed in our previous study, as described in the Methods section. […]
Antimicrobial activity was measured by a minimal inhibitory concentration (MIC) assay, carried out with Gram-positive Bacillus subtilis (DSM 347) and Staphylococcus xylosus (DSM 20287) and with Gram-negative Escherichia coli (DSM 1116) and Enterobacter helvet-icus (DSM 18390). […]
gregate stronlgy in contact with the phosphate containing growth medium. […] The MIC value was determined visually as the lowest peptide concentration inhibiting bacterial growth. […]

[8] = system: erythrocytes; conditions: cited from earlier work
From the text: as §7

[9] = Gram-positive, modified MIC: 2-fold dilution series of peptide in water, then bacteria in double-concentration Müller-Hinton medium, 5 × 10^5 CFU/mL, 37°C 20 h, resazurin, visual
[10] = Gram-negative, modified MIC: 2-fold dilution series of peptide in water, then bacteria in double-concentration Müller-Hinton medium, 5 × 10^5 CFU/mL, 37°C 20 h, resazurin, visual

Substance	Hemolysis HC50 (concentration of peptide giving 50% hemolysis) ([1]; 20 h) [µg/mL]	MIC S. xylosus ([2]; DSM 20287, 20 h) [µg/mL]	MIC E. coli ([3]; DSM 1116, 20 h) [µg/mL]	MIC B. subtilis ([4]; DSM 347, 20 h) [µg/mL]	MIC E. helveticus ([5]; DSM 18390, 20 h) [µg/mL]	further results
KLKLKLKLKLKLKLKLKLKLKLKL-NH2 [KL24]	<1	8	32	32	16	
KLKLKLKLKLK-NH2 [KL11]	>256	1	4	4	2	Hemolytic activity (in words) [1]: very low hemolytic activity
KLKLKLKL-NH2 [KL8]	>256	8	64	16	16	Hemolytic activity (in words) [1]: very low hemolytic activity
KLKLKLKLKL-NH2 [KL10]	47	2	4	2	2	Hemolytic activity (in words) [1]: considerably more hemolytic than LK10; Antimicrobial effect (in words) [6]: better antimicrobial effect than KL6, KL14 or KL18; Antimicrobial activity (in words) [7]: highest activity
LKLKLKLKL-NH2 [LK9]	145	2	16	4	4	
KLKLKLKLKLKLKLKLKL-NH2 [KL18]	1	8	32	32	16	Hemolytic activity (in words) [8]: highly hemolytic
LKLKLKLKLKLKLKL-NH2 [LK15]	<1	16	64	16	16	
KLKLKL-NH2 [KL6]	>256	256	>256	>256	128	Hemolytic activity (in words) [1]: very low hemolytic activity
KLKLKLKLKLKLKLKLKLKL-NH2 [KL20]	<1	16	32	32	32	
KLKLKLKLKLKLKLKLKLKLKLKLKL-NH2 [KL26]						Hemolysis HC50 (concentration of peptide giving 50% hemolysis) ([1]; interpolated from concentration-dependent curves, washed erythrocytes of healthy donors, 37°C 30 min, absorbance 540 nm, 100% = 1% Triton X-100): <1 µg/mL; Hemolysis ([1]; peptide 1 µg/mL, erythrocytes of healthy donors, 37°C 30 min, A540, relative to Triton-X 100%, average of three absorbance measurements): 52%; Hemolysis ([1]; peptide 2 µg/mL, erythrocytes of healthy donors, 37°C 30 min, A540, relative to Triton-X 100%, average of three absorbance measurements): 71%; Hemolysis ([1]; peptide 4 µg/mL, erythrocytes of healthy donors, 37°C 30 min, A540, relative to Triton-X 100%, average of three absorbance measurements): 72%; Hemolysis ([1]; peptide 8 µg/mL, erythrocytes of healthy donors, 37°C 30 min, A540, relative to Triton-X 100%, average of three absorbance measurements): 72%; Hemolysis ([1]; peptide 16 µg/mL, erythrocytes of healthy donors, 37°C 30 min, A540, relative to Triton-X 100%, average of three absorbance measurements): 56%; Hemolysis ([1]; peptide 32 µg/mL, erythrocytes of healthy donors, 37°C 30 min, A540, relative to Triton-X 100%, average of three absorbance measurements): 50%; Hemolysis ([1]; peptide 64 µg/mL, erythrocytes of healthy donors, 37°C 30 min, A540, relative to Triton-X 100%, average of three absorbance measurements): 47%; Hemolysis ([1]; peptide 128 µg/mL, erythrocytes of healthy donors, 37°C 30 min, A540, relative to Triton-X 100%, average of three absorbance measurements): 42%; Hemolysis ([1]; peptide 256 µg/mL, erythrocytes of healthy donors, 37°C 30 min, A540, relative to Triton-X 100%, average of three absorbance measurements): 39%; MIC S. xylosus [2, 9]: 16 µg/mL; MIC E. coli [3, 10]: 64 µg/mL; MIC B. subtilis [4, 9]: 32 µg/mL; MIC E. helveticus [5, 10]: 16 µg/mL
LKLKLKLKLKLKL-NH2 [LK13]	2	4	8	8	4	
LKLKLKLKLKL-NH2 [LK11]	3	1	2	2	1	
LKLKLKLKLK-NH2 [LK10]	256	1	8	4	2	
KLKLKLKLKLKLKLKL-NH2 [KL16]	2	8	32	16	8	
KLKLKLKLKLKLK-NH2 [KL13]	9	1	2	2	1	
KLKLKLKLKLKL-NH2 [KL12]	8	2	2	2	2	
KLKLKLKLKLKLKLK-NH2 [KL15]	2	2	8	4	2	
KLKLKLKLKLKLKL-NH2 [KL14]	1	4	8	4	4	Hemolytic activity (in words) [8]: highly hemolytic
KLKLKLKLK-NH2 [KL9]	>256	2	32	16	8	Hemolysis ([1]; 20 h, 1 µg/mL): 5%; Hemolysis ([1]; 20 h, 2 µg/mL): 6%; Hemolysis ([1]; 20 h, 4 µg/mL): 8%; Hemolysis ([1]; 20 h, 8 µg/mL): 9%; Hemolysis ([1]; 20 h, 16 µg/mL): 9%; Hemolysis ([1]; 20 h, 32 µg/mL): 11%; Hemolysis ([1]; 20 h, 64 µg/mL): 14%; Hemolysis ([1]; 20 h, 128 µg/mL): 18%; Hemolysis ([1]; 20 h, 256 µg/mL): 20%; Hemolytic activity (in words) ([1]; erythrocytes, 37°C 30 min): very low hemolytic activity
KLKLKLKLKLKLKLKLKLKLKL-NH2 [KL22]	<1	16	32	32	32	

Reference: paper PMC9495826, “Membranolytic Mechanism of Amphiphilic Antimicrobial β-Stranded [KL]n Peptides” (Biomedicines, 2022)
